Values quoted from earlier work as cited in patent US20050008633A1, “Chemical and physical modulators of bioavailability of inhaled compositions” (Advanced Inhalation Research Inc., priority 2003, published 2005).

Legend:
[1] = tested on: rat alveolar epithelial cell monolayers; conditions: rat pneumocyte monolayers
[2] = intratracheal instillation in animals, absorption over many hours

Row | Substance | Jmax (i.e., maximum flux) ([1]; net absorption of intact F-Alb) [fmol.cm^−2.s^−1] | Kt (i.e., K(1)) of net absorption of intact F-Alb ([1]; simple saturable process) [µM] | bioavailability [2]
1 | F-Alb: fluorescein isothiocyanate (FITC)-labeled bovine serum albumin | ~0.15 | ~1.6 | 
2 | immunoglobulin G |  |  | lower than 5%
